Converted amounts (≈) assume the structure as drawn. Like-named read-outs stand apart in the source and are kept apart here. Marks after values point to notes of the source that are not given here.
How the values were obtained:
S. pneumoniae WalK = target: T1, S. pneumoniae WalK (Streptococcus pneumoniae, UniProt Q8DPL8); assay: In vitro autophosphorylation kinase assay with γ-32P-ATP, WalK; type: biochemical; conditions: IC50 WalK, autophosphorylation, one time point (30 sec), 10% DMSO
T1 construct: WalK (amino acids from 208 to 449); N-terminal His6-3C site of vector pOPINF (own knowledge of the vector); made in house; host or cells: E. coli RIL
Procedure: (§1) To evaluate the inhibitory capacity of selected hits from DSF, SBVS and LBSS in vitro autophosphorylation kinase assays with γ-^32P-ATP were performed as previously described. Ligands were dissolved in 100% DMSO. […] Controls lacking ligands contained an equal concentration of DMSO. Inhibition of autophosphorylation was determined by incubating 0.12 mg/ml (≈4 μM) HK and up to 20 mM fragment in kinase buffer (50 mM Tris HCl, pH 8.5, 50 mM KCl, 5 mM MgCl2, 0.5 mM EDTA and 0.1 mM DTT). Autophosporylation reactions were initiated by addition of 0.1 μCi/μl γ-^32P-ATP containing from 0.03 to 0.06 μM ATP (final concentrations). Autophosphorylation was quenched with 2xSDS-PAGE sample buffer supplemented with 50 mM EDTA. […] After electrophoresis, the bottoms of the gels were removed to lower the background from the unincorporated radiolabeled ATP. Gels were dried without staining on a Bio-Rad Gel Air drying system and the phosphorylated protein was quantified by phosphor-imaging. Prism GraphPad was used for curve fitting and statistical analysis.

Escherichia coli = assay: Antibacterial susceptibility testing (MIC/MBC), E. coli; type: cell-based; conditions: Escherichia coli
Procedure: (§2) Minimal inhibitory concentrations (MICs) were determined following a standard double-dilution method. […] For S. pneumoniae MICs were determined by adapting the standard double-dilution method to anaerobic conditions and of this microorganism (use of Todd Hewitt Yeast extract with 200 U/mL of catalase and continuous monitoring of growth).

Streptococcus suis = assay: Antibacterial susceptibility testing (MIC), S. suis; type: cell-based; conditions: Streptococcus suis, read-out: MIC Streptococcus suis 3881/S10, strain 3881/S10
Procedure: (§3) Bacterial strains used in this study for antibacterial susceptibility testing (Table S5) were propagated using standard microbiological procedures. Minimal inhibitory concentrations (MICs) were determined following a standard double-dilution method. MICs were recorded as the lowest concentration of the compound where no visible growth was observed. After plating the dilutions around the MIC or growing them in fresh MH media, minimal bactericidal concentration (MBC) was recorded as the lowest concentration of the compound at which no colonies were formed or no growth was observed, respectively. For S. pneumoniae MICs were determined by adapting the standard double-dilution method to anaerobic conditions and of this microorganism (use of Todd Hewitt Yeast extract with 200 U/mL of catalase and continuous monitoring of growth).

Streptococcus pneumoniae = assay: Antibacterial susceptibility testing (MIC), S. pneumoniae; type: cell-based; conditions: strain 49619
Procedure: as §3

Acinetobacter baumannii = assay: Antibacterial susceptibility testing (MIC), A. baumannii; type: cell-based; conditions: MDR clinical isolate NM8, read-out: MIC A. baumannii NM8
Procedure: as §3

Hemolysis assay = type: cell-based; conditions: human; erythrocytes from a healthy donor, up to 500 μg/ml, three independent incubations; read-out: LC50 hemolysis
Procedure: Hemolytic activity against human erythrocytes taken from a healthy donor was measured as previously described. The hemolysis experiments were carried out in accordance with the guidelines of the United Arab Emirates University (UAEU) Research Ethics Review Board. All experimental protocols were approved by the Research Ethics Review Board of UAEU and informed consent was obtained from all donors.

[1] = system: Staphylococcus epidermidis; assay: Antibacterial susceptibility testing (MIC/MBC), S. epidermidis; type: cell-based; conditions: for MBC / MIC: Staphylococcus epidermidis; for MIC S. epidermidis DSM 20044: strain DSM 20044
Procedure: as §2

Klebsiella pneumoniae = assay: Antibacterial susceptibility testing (MIC), K. pneumoniae; type: cell-based; conditions: Klebsiella pneumoniae, ATCC700603, strain ATCC 700603
Procedure: as §3

[2] = system: Stenotrophomonas maltophilia; assay: Antibacterial susceptibility testing (MIC), S. maltophilia; type: cell-based; conditions: clinical isolate B32/1, read-out: MIC S. maltophilia B32/1
Procedure: as §3

Pseudomonas aeruginosa = assay: Antibacterial susceptibility testing (MIC), P. aeruginosa; type: cell-based; conditions: Pseudomonas aeruginosa, ATCC27853; strain ATCC 27853
Procedure: as §3

Staphylococcus aureus = assay: Antibacterial susceptibility testing (MIC/MBC), S. aureus; type: cell-based; conditions: Staphylococcus aureus; for MBC: read-out: MBC S. aureus DSM 20231
Procedure: as §2

E. coli PhoR (PhoR^E) [3] = target: T2, E. coli PhoR (PhoR^E) (Escherichia coli, UniProt P08400); assay: In vitro autophosphorylation kinase assay with γ-32P-ATP, PhoR^E; type: biochemical; conditions: IC50 PhoR^E, autophosphorylation, one time point (30 sec), 10% DMSO
T2 construct: The catalytic portion (DHp and CA domain) of E. coli PhoR (PhoR^E); made in house; host or cells: E. coli RIL
Procedure: as §1

T. maritima HK853 = target: T3, T. maritima HK853 (Thermotoga maritima, UniProt Q9WZV7); assay: In vitro autophosphorylation kinase assay with γ-32P-ATP, HK853; type: biochemical
T3 sequence (Q9WZV7 232-489): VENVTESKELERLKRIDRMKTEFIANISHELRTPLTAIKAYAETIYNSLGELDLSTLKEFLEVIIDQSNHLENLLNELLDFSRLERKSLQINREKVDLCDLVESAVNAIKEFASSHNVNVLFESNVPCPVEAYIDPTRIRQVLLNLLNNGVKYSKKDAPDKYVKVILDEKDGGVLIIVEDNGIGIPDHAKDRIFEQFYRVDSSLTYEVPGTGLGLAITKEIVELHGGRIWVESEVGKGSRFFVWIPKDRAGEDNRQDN
Procedure: (§4) To evaluate the inhibitory capacity of selected hits from DSF, SBVS and LBSS in vitro autophosphorylation kinase assays with γ-^32P-ATP were performed as previously described. Ligands were dissolved in 100% DMSO. […] Controls lacking ligands contained an equal concentration of DMSO. Inhibition of autophosphorylation was determined by incubating 0.12 mg/ml (≈4 μM) HK and up to 20 mM fragment in kinase buffer (50 mM Tris HCl, pH 8.5, 50 mM KCl, 5 mM MgCl2, 0.5 mM EDTA and 0.1 mM DTT). Autophosporylation reactions were initiated by addition of 0.1 μCi/μl γ-^32P-ATP containing from 0.03 to 0.06 μM ATP (final concentrations). Autophosphorylation was quenched with 2xSDS-PAGE sample buffer supplemented with 50 mM EDTA. Samples were applied without heating to 15% (w/v) Tris-glycine SDS-polyacrylamide gels. After electrophoresis, the bottoms of the gels were removed to lower the background from the unincorporated radiolabeled ATP. Gels were dried without staining on a Bio-Rad Gel Air drying system and the phosphorylated protein was quantified by phosphor-imaging. Prism GraphPad was used for curve fitting and statistical analysis.

E. coli PhoR (PhoR^E) [4] = target: T2, E. coli PhoR (PhoR^E); assay: Aggregation analysis by native-PAGE, PhoR^E; conditions: 2 mM (S5 and S6 5 mM), 10% DMSO
Procedure: (§5) E. coli PhoR and EnvZ, and S. aureus PhoR ([…], final concentration) were prepared in kinase buffer. […] DMSO in the assays was maintained to a final concentration 10% (v/v). After 30 min of incubation at room temperature Native polyacrylamide gel electrophoresis (Native-PAGE) loading buffer was added and samples loaded. Coomassie blue staining was used for protein visualization.

S. aureus PhoR (PhoR^S) [5] = target: T4, S. aureus PhoR (PhoR^S) (Staphylococcus aureus, UniProt Q2FXN7); assay: In vitro autophosphorylation kinase assay with γ-32P-ATP, PhoR^S; type: biochemical; conditions: IC50 PhoR^S, autophosphorylation, one time point (30 sec), 10% DMSO
Procedure: as §4

S. aureus PhoR (PhoR^S) [6] = target: T4, S. aureus PhoR (PhoR^S); assay: Aggregation analysis by native-PAGE, PhoR^S; conditions: 2 mM (S5 and S6 5 mM), 10% DMSO
Procedure: as §5

[7] = Solubility in kinase buffer; type: physicochemical; conditions: kinase buffer with 10% DMSO, pH 8.5, aqueous with cosolvent or surfactant or cyclodextrin, kinetic from dmso stock; kinase buffer in the presence of 10% DMSO; read-out: concentration above which not soluble / reduced solubility in kinase buffer
[8] = strain CFT 073, read-out: MIC E. coli CFT 073
[9] = DSM20044, strain DSM 20044, read-out: MIC S. epidermidis DSM 20044

T2 sequence (P08400 210-425): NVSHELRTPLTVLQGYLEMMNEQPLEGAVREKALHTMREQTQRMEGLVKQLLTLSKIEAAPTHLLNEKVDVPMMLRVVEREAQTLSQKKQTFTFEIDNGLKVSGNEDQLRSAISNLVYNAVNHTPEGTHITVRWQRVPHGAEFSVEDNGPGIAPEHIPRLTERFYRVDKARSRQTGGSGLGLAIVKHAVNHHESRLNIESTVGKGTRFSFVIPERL
T4 sequence (Q2FXN7 entry or part of it): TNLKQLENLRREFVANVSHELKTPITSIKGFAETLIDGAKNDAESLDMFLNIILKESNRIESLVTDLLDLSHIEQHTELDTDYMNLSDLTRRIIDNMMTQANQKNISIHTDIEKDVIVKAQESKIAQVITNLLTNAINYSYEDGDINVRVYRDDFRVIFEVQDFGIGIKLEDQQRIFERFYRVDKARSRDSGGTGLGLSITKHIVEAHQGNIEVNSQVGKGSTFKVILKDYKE
T1 sequence (Q8DPL8 208-449): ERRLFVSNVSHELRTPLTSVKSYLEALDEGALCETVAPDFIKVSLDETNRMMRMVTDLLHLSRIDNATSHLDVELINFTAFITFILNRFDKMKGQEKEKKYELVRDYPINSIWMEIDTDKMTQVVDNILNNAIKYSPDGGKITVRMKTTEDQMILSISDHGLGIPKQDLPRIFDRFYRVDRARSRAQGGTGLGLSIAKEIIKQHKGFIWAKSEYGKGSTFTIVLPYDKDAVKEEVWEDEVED

NCCc1ccc2c(c1)[nH]c1ccccc12 [F2.3]
IC50 (S. pneumoniae WalK): > 2000 µM | MIC (Escherichia coli; ATCC25276, strain ATCC 25276, read-out: MIC E. coli ATCC 25276): > 500 µg/mL | MIC (Escherichia coli; [8]): > 500 µg/mL | MIC (Streptococcus suis): > 500 µg/mL | MIC (Streptococcus pneumoniae): 4 µg/mL (≈ 19 µM) | MIC (Acinetobacter baumannii): > 500 µg/mL | HC50 (Hemolysis assay): > 500 µg/mL | MBC ([1]; DSM20044, strain DSM 20044): 63 µg/mL (≈ 300 µM) | MIC [1, 9]: 31 to 500 µg/mL (≈ 147 to 2380 µM) | MIC ([1]; clinical isolate T7/3, read-out: MIC S. epidermidis T7/3): 31 µg/mL (≈ 147 µM) | MIC ([1]; clinical isolate T37/8, read-out: MIC S. epidermidis T37/8): 125 µg/mL (≈ 594 µM) | MIC ([1]; clinical isolate T6119, read-out: MIC S. epidermidis T6119): 125 µg/mL (≈ 594 µM) | MIC ([1]; strain RP62A (biofilm producer), read-out: MIC S. epidermidis RP62A): 125 µg/mL (≈ 594 µM) | MIC ([1]; strain RP62A/1 (non-biofilm producer), read-out: MIC S. epidermidis RP62A/1): 125 µg/mL (≈ 594 µM) | MIC ([1]; summary over strains, read-out: MICs for the S. epidermidis strains): 31 to 250 µg/mL (≈ 147 to 1190 µM) | MIC S. epidermidis DSM 20044 [1]: 31 µg/mL (≈ 147 µM) | MIC (Klebsiella pneumoniae): > 500 µg/mL | MIC [2]: > 500 µg/mL | MIC (Pseudomonas aeruginosa): > 500 µg/mL | MIC (Staphylococcus aureus; ATCC reference strain 25293, read-out: MIC S. aureus 25293): 125 µg/mL (≈ 594 µM) | MBC (Staphylococcus aureus; DSM20231, strain DSM 20231): > 500 µg/mL | MIC (Staphylococcus aureus; MRSA clinical isolate 127/08, read-out: MIC S. aureus 127/08): 250 µg/mL (≈ 1190 µM) | MIC (Staphylococcus aureus; MRSA clinical isolate 145/08, read-out: MIC S. aureus 145/08): 250 µg/mL (≈ 1190 µM) | MIC (Staphylococcus aureus; MRSA clinical isolate 274/08, read-out: MIC S. aureus 274/08): > 500 µg/mL | MIC (Staphylococcus aureus; MRSA, MRSA clinical isolate S908, read-out: MIC S. aureus S908): 250 µg/mL (≈ 1190 µM) | MIC (Staphylococcus aureus; MRSA, MRSA clinical isolate T4/6, read-out: MIC S. aureus T4/6): 250 µg/mL (≈ 1190 µM) | MIC (Staphylococcus aureus; MRSA, MRSA clinical isolate V4180, read-out: MIC S. aureus V4180): 250 µg/mL (≈ 1190 µM) | MIC (Staphylococcus aureus; MRSA, summary over strains, read-out: MICs for the MRSA strains and S. aureus 25293): 125 to 500 µg/mL (≈ 594 to 2380 µM) | IC50 (E. coli PhoR (PhoR^E) [3]): > 2000 µM

CCC(Nc1cccc(NC(C)=O)c1)c1ccc(F)cc1 (stereo not shown) [S5]
IC50 (S. pneumoniae WalK): > 1000 µM | MBC (Escherichia coli; strain CFT 073, read-out: MBC E. coli CFT 073): > 500 µg/mL | MIC (Escherichia coli; [8]): > 500 µg/mL | IC50 (T. maritima HK853): > 5000 µM | HK aggregation, PhoR^E (E. coli PhoR (PhoR^E) [4]): do not cause HK aggregation | IC50 (S. aureus PhoR (PhoR^S) [5]): ~1000 µM | MBC ([1]; DSM20044, strain DSM 20044): > 500 µg/mL | MIC [1, 9]: 500 µg/mL (≈ 1750 µM) | MIC S. epidermidis DSM 20044 [1]: 500^# μg/ml | MBC (Staphylococcus aureus; DSM20231, strain DSM 20231): > 500 µg/mL | MIC (Staphylococcus aureus; DSM20231, strain DSM 20231, read-out: MIC S. aureus DSM 20231): > 500 µg/mL | HK aggregation, PhoR^S (S. aureus PhoR (PhoR^S) [6]): do not cause HK aggregation | IC50 (E. coli PhoR (PhoR^E) [3]): ~1000 µM | solubility [7]: ≤ 1300 µM

From publication PMC4865847, “Putative histidine kinase inhibitors with antibacterial effect against multi-drug resistant clinical isolates identified by in vitro and in silico screens” (Scientific Reports, 2016)
